Experimental data: paper PMC9868654, “Discovery of a potent olaparib–chlorambucil hybrid inhibitor of PARP1 for the treatment of cancer” (Frontiers in Pharmacology, 2023)

Assays:
PARP1 = PARP1 (Homo sapiens, UniProt P09874); assay: PARP1 enzyme inhibitory assay; format: biochemical; settings: mean of three experiments
MDA-MB-231 cells = assay: In vitro antiproliferative assay (CCK-8); format: cell-based; settings: Homo sapiens; MDA-MB-231, without BRCA mutations; CCK-8, 72 h; mean of three
Procedure: (§1) The proliferation of cancer cells was tested by CCK-8 assay. Briefly, cells were seeded in 96-well plates at approximately 5 × 10^3 cells per well. The cells were treated with test compounds after 24 h of incubation. CCK-8 reagent ([…]) was added to each well after 72 h of incubation, and the cells were then incubated at 37°C for 4 h. The light absorbance at 450 nm was measured using an Opsys microplate reader (Dynex Technologies, Chantilly, VA, United States). Results are illustrated as percentage viability normalized to DMSO-treated control cells.

8226 cells = assay: In vitro antiproliferative assay (CCK-8); format: cell-based; settings: 8226, without BRCA mutations; CCK-8, 72 h; mean of three
Procedure: as §1

CH151 cells = assay: In vitro antiproliferative assay (CCK-8); format: cell-based; settings: CH151, without BRCA mutations; CCK-8, 72 h; mean of three
Procedure: as §1

U251 cells = assay: In vitro antiproliferative assay (CCK-8); format: cell-based; settings: Homo sapiens, U-251; U251, without BRCA mutations; CCK-8, 72 h; mean of three
Procedure: as §1

K562 cells = assay: In vitro antiproliferative assay (CCK-8); format: cell-based; settings: Homo sapiens; K562, without BRCA mutations; CCK-8, 72 h; mean of three
Procedure: as §1

U87 cells = assay: In vitro antiproliferative assay (CCK-8); format: cell-based; settings: Homo sapiens, U-87 MG; U87, without BRCA mutations; CCK-8, 72 h; mean of three
Procedure: as §1

MDA-MB-436 cells = assay: In vitro antiproliferative assay (CCK-8); format: cell-based; settings: Homo sapiens; MDA-MB-436, BRCA-mutated; CCK-8, 72 h; mean of three
Procedure: as §1

A549 cells = assay: In vitro antiproliferative assay (CCK-8); format: cell-based; settings: Homo sapiens; A549, without BRCA mutations; CCK-8, 72 h; mean of three
Procedure: as §1

Hela cells = assay: In vitro antiproliferative assay (CCK-8); format: cell-based; settings: Homo sapiens, without BRCA mutations, CCK-8, 72 h, mean of three
Procedure: as §1

MCF-7 cells = assay: In vitro antiproliferative assay (CCK-8); format: cell-based; settings: Homo sapiens, MCF7; MCF-7, without BRCA mutations; CCK-8, 72 h; mean of three
Procedure: as §1

SKOV3 cells = assay: In vitro antiproliferative assay (CCK-8); format: cell-based; settings: Homo sapiens, SK-OV-3; SKOV3, without BRCA mutations; CCK-8, 72 h; mean of three
Procedure: as §1

HCC1937 cells = assay: In vitro antiproliferative assay (CCK-8); format: cell-based; settings: Homo sapiens; HCC1937, BRCA-mutated; CCK-8, 72 h; mean of three
Procedure: as §1

SW620 cells = assay: In vitro antiproliferative assay (CCK-8); format: cell-based; settings: Homo sapiens, SW-620; SW620, without BRCA mutations; CCK-8, 72 h; mean of three
Procedure: as §1

Capan-1 cells = assay: In vitro antiproliferative assay (CCK-8); format: cell-based; settings: Homo sapiens; Capan-1, BRCA-mutated; CCK-8, 72 h; mean of three
Procedure: as §1

Raji cells = assay: In vitro antiproliferative assay (CCK-8); format: cell-based; settings: Homo sapiens, without BRCA mutations, CCK-8, 72 h, mean of three
Procedure: as §1

B16 cells = assay: In vitro antiproliferative assay (CCK-8); format: cell-based; settings: Mus musculus; B16, without BRCA mutations; CCK-8, 72 h; mean of three
Procedure: as §1

Chain of PARP1 (P09874 whole entry): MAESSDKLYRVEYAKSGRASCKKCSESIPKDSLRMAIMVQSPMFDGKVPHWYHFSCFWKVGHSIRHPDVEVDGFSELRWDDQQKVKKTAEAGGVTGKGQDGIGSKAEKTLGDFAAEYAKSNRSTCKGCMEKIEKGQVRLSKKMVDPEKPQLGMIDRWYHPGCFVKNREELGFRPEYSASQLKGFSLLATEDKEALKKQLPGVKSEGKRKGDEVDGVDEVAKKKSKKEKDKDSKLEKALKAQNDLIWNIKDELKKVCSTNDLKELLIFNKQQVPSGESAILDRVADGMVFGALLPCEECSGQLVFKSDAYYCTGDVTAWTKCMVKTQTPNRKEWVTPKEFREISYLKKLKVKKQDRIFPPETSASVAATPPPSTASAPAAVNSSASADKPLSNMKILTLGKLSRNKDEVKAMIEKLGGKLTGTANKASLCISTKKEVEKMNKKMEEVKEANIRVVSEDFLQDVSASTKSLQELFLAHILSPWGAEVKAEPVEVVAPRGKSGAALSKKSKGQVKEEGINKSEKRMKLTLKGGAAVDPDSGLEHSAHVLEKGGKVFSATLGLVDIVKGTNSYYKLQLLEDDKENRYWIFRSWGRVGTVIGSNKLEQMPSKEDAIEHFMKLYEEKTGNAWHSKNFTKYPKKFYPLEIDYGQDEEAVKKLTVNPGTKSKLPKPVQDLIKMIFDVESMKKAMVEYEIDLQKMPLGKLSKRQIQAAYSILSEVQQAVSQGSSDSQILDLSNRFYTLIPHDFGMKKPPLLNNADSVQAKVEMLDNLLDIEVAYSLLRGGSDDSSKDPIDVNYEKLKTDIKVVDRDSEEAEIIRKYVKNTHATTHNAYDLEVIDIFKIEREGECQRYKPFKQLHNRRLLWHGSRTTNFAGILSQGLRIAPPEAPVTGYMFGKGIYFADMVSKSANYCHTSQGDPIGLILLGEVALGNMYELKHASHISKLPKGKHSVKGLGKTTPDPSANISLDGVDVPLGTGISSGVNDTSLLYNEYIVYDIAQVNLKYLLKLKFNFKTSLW

For `NC(=O)C1CCN(Cc2cc(Cc3n[nH]c(=O)c4ccccc34)ccc2F)CC1` [A14, 1-(2-Fluoro-5-((4-oxo-3,4-dihydrophthalazin-1-yl)methyl)benzyl)piperidine-4-carboxamide], the IC50 (PARP1; Table 1, A series) was greater than 50 nM.
`O=C(c1ccc(C(F)(F)F)cc1)N1CCN(Cc2cc(Cc3n[nH]c(=O)c4ccccc34)ccc2F)CC1` [A4, 4-(4-Fluoro-3-((4-(4-(trifluoromethyl)benzoyl)piperazin-1-yl)methyl)benzyl)phthalazin-1(2H)-one] gave an IC50 (PARP1; Table 1, A series) of 42.2 ± 4.1 nM.
Compound `O=C(c1ccccc1C(F)(F)F)N1CCN(Cc2cc(Cc3n[nH]c(=O)c4ccccc34)ccc2F)CC1` [A5, 4-(4-Fluoro-3-((4-(2-(trifluoromethyl)benzoyl)piperazin-1-yl)methyl)benzyl)phthalazin-1(2H)-one] has an IC50 (PARP1; Table 1, A series) of 33.2 ± 3.1 nM.
`CCc1ccc(C(=O)N2CCN(Cc3cc(Cc4n[nH]c(=O)c5ccccc45)ccc3F)CC2)cc1` [A10, 4-(3-((4-(4-Ethylbenzoyl)piperazin-1-yl)methyl)-4-fluorobenzyl)phthalazin-1(2H)-one] gave an IC50 (PARP1; Table 1, A series) of 21.4 ± 1.4 nM.
In the case of `COc1ccc(C(=O)N2CCN(Cc3cc(Cc4n[nH]c(=O)c5ccccc45)ccc3F)CC2)cc1` [A13, 4-(4-Fluoro-3-((4-(4-methoxybenzoyl)piperazin-1-yl)methyl)benzyl)phthalazin-1(2H)-one], the IC50 (PARP1; Table 1, A series) is reported as greater than 50 nM.
`O=c1[nH]nc(Cc2ccc(F)c(CN3CCC(Cc4ccccc4)CC3)c2)c2ccccc12` [A18, 4-(3-((4-Benzylpiperidin-1-yl)methyl)-4-fluorobenzyl)phthalazin-1(2H)-one] showed an IC50 (PARP1; Table 1, A series) greater than 50 nM.
`O=C(C1CC1)N1CCN(Cc2cc(Cc3n[nH]c(=O)c4ccccc34)ccc2F)CC1` [A21, 4-(3-((4-(Cyclopropanecarbonyl)piperazin-1-yl)methyl)-4-fluorobenzyl)phthalazin-1(2H)-one] showed an IC50 (PARP1; Table 1, A series) of 8.4 ± 0.4 nM.
In the case of `O=C(C1CCC(F)(F)CC1)N1CCN(Cc2cc(Cc3n[nH]c(=O)c4ccccc34)ccc2F)CC1` [A22, 4-(3-((4-(4,4-Difluorocyclohexane-1-carbonyl)piperazin-1-yl)methyl)-4-fluorobenzyl) phthalazin-1(2H)-one], the IC50 (PARP1; Table 1, A series) is reported as 9.3 ± 0.3 nM.
For `O=C(C1CCCCC1)N1CCN(Cc2cc(Cc3n[nH]c(=O)c4ccccc34)ccc2F)CC1` [A23, 4-(3-((4-(Cyclohexanecarbonyl)piperazin-1-yl)methyl)-4-fluorobenzyl)phthalazin-1(2H)-one], the IC50 (PARP1; Table 1, A series) was 10.1 ± 0.6 nM.
Compound `O=C(c1ccc(N(CCCl)CCCl)cc1)N1CCN(C(=O)c2cc(Cc3n[nH]c(=O)c4ccccc34)ccc2F)CC1` [C1, 4-(3-(4-(4-(Bis(2-chloroethyl)amino)benzoyl)piperazine-1-carbonyl)-4-fluorobenzyl) phthalazin-1(2H)-one] has an IC50 (PARP1; Table 2, B and C series) of 1.2 ± 0.11 nM, an IC50 (MDA-MB-231 cells) greater than 100000 nM and an IC50 (8226 cells) greater than 100000 nM. For the same compound, the IC50 (CH151 cells) was greater than 100000 nM, the IC50 (U251 cells) was greater than 100000 nM and the IC50 (K562 cells) was greater than 20000 nM. It also gave an IC50 (U87 cells) greater than 100000 nM, an IC50 (MDA-MB-436 cells) of 18 ± 2 nM and an IC50 (A549 cells) of 14100 ± 1100 nM. It also gave an IC50 (Hela cells) greater than 100000 nM, an IC50 (MCF-7 cells) greater than 100000 nM and an IC50 (SKOV3 cells) greater than 100000 nM. It also gave an IC50 (HCC1937 cells) of 360 ± 20 nM, an IC50 (SW620 cells) greater than 100000 nM and an IC50 (Capan-1 cells) of 105 ± 10 nM. For the same compound, the IC50 (Raji cells) was greater than 100000 nM and the IC50 (B16 cells) was greater than 100000 nM.
Compound `O=C(c1ccc2c(c1)OCO2)N1CCN(Cc2cc(Cc3n[nH]c(=O)c4ccccc34)ccc2F)CC1` [A20, 4-(3-((4-(Benzo[d][1,3]dioxole-5-carbonyl)piperazin-1-yl)methyl)-4-fluorobenzyl)phthalazin-1(2H)-one] has an IC50 (PARP1; Table 1, A series) of 12.6 ± 0.9 nM.
`O=C(c1ccc(F)cc1)N1CCN(Cc2cc(Cc3n[nH]c(=O)c4ccccc34)ccc2F)CC1` [A1, 4-(4-Fluoro-3-((4-(4-fluorobenzoyl)piperazin-1-yl)methyl)benzyl)phthalazin-1(2H)-one] gave an IC50 (PARP1; Table 1, A series) of 31.2 ± 2.4 nM.
With `CCCCNNC(=O)c1cc(Cc2n[nH]c(=O)c3ccccc23)ccc1F` [B3, N′-butyl-2-fluoro-5-((4-oxo-3,4-dihydrophthalazin-1-yl)methyl)benzohydrazide] the IC50 (PARP1; Table 2, B and C series) was 2.8 ± 0.1 nM, the IC50 (MDA-MB-231 cells) was greater than 100000 nM and the IC50 (8226 cells) was greater than 100000 nM. The IC50 (CH151 cells) was greater than 100000 nM, the IC50 (U251 cells) was greater than 100000 nM and the IC50 (K562 cells) was greater than 20000 nM. It also gave an IC50 (U87 cells) greater than 100000 nM, an IC50 (MDA-MB-436 cells) greater than 1000 nM and an IC50 (A549 cells) greater than 100000 nM. For the same compound, the IC50 (Hela cells) was greater than 100000 nM, the IC50 (MCF-7 cells) was greater than 100000 nM and the IC50 (SKOV3 cells) was greater than 100000 nM. For the same compound, the IC50 (HCC1937 cells) was greater than 1000 nM, the IC50 (SW620 cells) was greater than 100000 nM and the IC50 (Capan-1 cells) was greater than 1000 nM. It also gave an IC50 (Raji cells) greater than 100000 nM and an IC50 (B16 cells) greater than 100000 nM.
